Experimental data reported in US11214803B2, “Modulators of YAP1 expression” (Ionis Pharmaceuticals, Inc., priority 2019, dated 2022).
Strand notation (5' to 3'): a small letter for the sugar, then the base; units joined by * are phosphorothioate-linked, units joined directly phosphodiester-linked; [ ] holds rarer units or linkages, { } end groups; capitals alone tell only the bases. e = 2'-O-(2-methoxyethyl) (MOE); k = constrained ethyl (cEt); [5mC] = 5-methylcytosine; d = 2'-deoxy (DNA); m = 2'-O-methyl

Tested on: Yap1 mRNA
Test: Dose-dependent inhibition of human Yap1 in SNU-449 cells (Example 9, RTS36584)
Assay type: cell-based
Conditions: free uptake; for % UTC (Yap1 mRNA): approximately 48 hours; for IC50: linear regression on a log/linear plot
Outline: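 Read-out was Yap1 mRNA (primer-probe RTS36584) normalised to total RNA by RIBOGREEN, given as % of untreated cells, with IC50 fitted by linear regression of log/linear data. Oligonucleotides were dosed by free uptake to SNU-449 cells, 10,000/well, for ~48 h.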

| Substance | % UTC (Yap1 mRNA) (31.3 nM) | % UTC (Yap1 mRNA) (125.0 nM) | % UTC (Yap1 mRNA) (500.0 nM) | % UTC (Yap1 mRNA) (2000.00 nM) | IC50 |
| --- | --- | --- | --- | --- | --- |
| 1198596 (k[5mC]*kT*k[5mC]*dT*dT*dA*dT*dA*dT*dG*dG*dT*kT*kT*kT*eG; antisense) [compound 1198596] | 73 % UTC | 40 % UTC | 14 % UTC | 4 % UTC | 100 nM |
| 1198613 (kA*kA*kA*dG*dT*dG*dT*dA*dT*dG*dT*d[5mC]*kA*kG*kA*eA; antisense) [compound 1198613] | 80 % UTC | 25 % UTC | 7 % UTC | 2 % UTC | 100 nM |
| 1198397 (k[5mC]*dA*d[5mC]*dT*dT*dT*dT*dA*d[5mC]*dA*dT*kT*eA*kG*eG*kA; antisense) [compound 1198397] | 70 % UTC | 53 % UTC | 28 % UTC | 14 % UTC | 100 nM |
| 1200794 (kA*kG*kA*dG*dT*mA*dT*dG*dT*dG*dG*d[5mC]*dA*kA*kT*kA; antisense) [compound 1200794] | 85 % UTC | 59 % UTC | 31 % UTC | 13 % UTC | 200 nM |
| 1198202 (kG*kA*dA*dA*dT*dT*dG*dT*d[5mC]*dT*d[5mC]*eA*eT*eG*k[5mC]*k[5mC]; antisense) [compound 1198202] | 83 % UTC | 46 % UTC | 16 % UTC | 5 % UTC | 100 nM |
| 1198295 (kT*kA*kG*dA*dG*dT*dA*dT*dG*dT*dG*dG*k[5mC]*eA*kA*eT; antisense) [compound 1198295] | 82 % UTC | 47 % UTC | 19 % UTC | 8 % UTC | 100 nM |
| 1198212 (kT*kA*dT*dT*dA*dG*dA*dG*dT*dA*dT*eG*eT*eG*kG*k[5mC]) [compound 1198212] | 74 % UTC | 35 % UTC | 10 % UTC | 2 % UTC | 100 nM |
| 1198857 (kT*k[5mC]*dT*dT*dA*dT*dA*dT*dG*dG*dT*kT*eT*kT*eG*kT) [compound 1198857] | 78 % UTC | 44 % UTC | 13 % UTC | 4 % UTC | 100 nM |
| 1198504 (kT*k[5mC]*dA*dG*dA*dT*dT*dT*dA*dG*dG*eA*kT*eG*k[5mC]*eA; antisense) [compound 1198504] | 77 % UTC | 46 % UTC | 27 % UTC | 24 % UTC | 100 nM |
| 1198529 (kT*kT*dA*dA*dA*dG*dT*dG*dT*dA*dT*eG*kT*e[5mC]*kA*eG; antisense) [compound 1198529] | 86 % UTC | 69 % UTC | 37 % UTC | 16 % UTC | 300 nM |
| 1198297 (kA*kT*kT*dA*dG*dA*dG*dT*dA*dT*dG*dT*kG*eG*k[5mC]*eA) [compound 1198297] | 67 % UTC | 42 % UTC | 16 % UTC | 7 % UTC | 100 nM |
| 1198268 (kA*kA*dG*dT*dG*dT*dA*dT*dG*dT*d[5mC]*eA*eG*eA*kA*kG; antisense) [compound 1198268] | 83 % UTC | 52 % UTC | 17 % UTC | 5 % UTC | 100 nM |
| 1200862 (kT*kT*kT*dA*dA*mA*dG*dT*dG*dT*dA*dT*dG*kT*k[5mC]*kA; antisense) [compound 1200862] | 88 % UTC | 64 % UTC | 35 % UTC | 13 % UTC | 200 nM |
| 1198552 (kA*kG*kA*dG*dT*dA*dT*dG*dT*dG*dG*d[5mC]*kA*kA*kT*eA; antisense) [compound 1198552] | 72 % UTC | 46 % UTC | 23 % UTC | 9 % UTC | 100 nM |
| 1198286 (kA*kA*kT*dT*dG*dT*d[5mC]*dT*d[5mC]*dA*dT*dG*k[5mC]*e[5mC]*kT*eT; antisense) [compound 1198286] | 64 % UTC | 45 % UTC | 22 % UTC | 8 % UTC | 100 nM |
| 1198499 (kT*kT*dT*dA*dG*dG*dA*dT*dG*d[5mC]*dA*eT*kG*eG*kT*eT) [compound 1198499] | 89 % UTC | 42 % UTC | 30 % UTC | 12 % UTC | 200 nM |
| 1200806 (kT*kG*kA*dG*dG*mU*dA*dT*dA*dA*d[5mC]*dT*dG*kG*kG*k[5mC]; antisense) [compound 1200806] | 91 % UTC | 54 % UTC | 34 % UTC | 18 % UTC | 200 nM |
| 1198569 (CACTTTTACATTAGGA; modified gapmer, chemistry not fully specified) [compound 1198569] | 71 % UTC | 45 % UTC | 22 % UTC | 14 % UTC | 100 nM |
| 1198570 (kG*k[5mC]*kA*d[5mC]*dT*dT*dT*dT*dA*d[5mC]*dA*dT*kT*kA*kG*eG) [compound 1198570] | 58 % UTC | 33 % UTC | 16 % UTC | 9 % UTC | 40 nM |
| 1197215 (kA*kA*kG*dT*dG*dT*dA*dT*dG*dT*d[5mC]*dA*dG*kA*kA*kG) [compound 1197215] | 56 % UTC | 31 % UTC | 7 % UTC | 2 % UTC | 40 nM |
| 1200797 (kA*kT*kT*dA*dG*mA*dG*dT*dA*dT*dG*dT*dG*kG*k[5mC]*kA; antisense) [compound 1200797] | 84 % UTC | 52 % UTC | 23 % UTC | 11 % UTC | 200 nM |
| 1198527 (kA*kA*dA*dG*dT*dG*dT*dA*dT*dG*dT*e[5mC]*kA*eG*kA*eA; antisense) [compound 1198527] | 63 % UTC | 35 % UTC | 12 % UTC | 3 % UTC | 100 nM |
| 1197179 (kT*kG*kG*dA*dA*dA*dT*dT*dG*dT*d[5mC]*dT*d[5mC]*kA*kT*kG; antisense) [compound 1197179] | 58 % UTC | 38 % UTC | 17 % UTC | 7 % UTC | 100 nM |
| 1198267 (kA*kG*dT*dG*dT*dA*dT*dG*dT*d[5mC]*dA*eG*eA*eA*kG*kA; antisense) [compound 1198267] | 78 % UTC | 44 % UTC | 15 % UTC | 3 % UTC | 100 nM |
| 1198904 (kT*kA*dT*dT*dA*dG*dA*dG*dT*dA*dT*kG*dT*kG*dG*k[5mC]; antisense) [compound 1198904] | 78 % UTC | 36 % UTC | 23 % UTC | 10 % UTC | 100 nM |
| 1198422 (k[5mC]*dT*dT*dA*dT*dA*dT*dG*dG*dT*dT*kT*eT*kG*eT*kG) [compound 1198422] | 88 % UTC | 60 % UTC | 30 % UTC | 19 % UTC | 200 nM |
